# Assay results: US20260256792A1, “TREATMENT OF CHRONIC SPONTANEOUS URTICARIA BY ADMINISTERING (R)-2-[3-[4-AMINO-3-(2-FLUORO-4-PHENOXY-PHENYL)PYRAZOLO[3,4-D]PYRIMIDIN-1-YL]PIPERIDINE-1-CARBONYL]-4-METHYL-4-[4-(OXETAN-3-YL)PIPERAZIN-1-YL]PENT-2-ENENITRILE” (priority 2023, published 2026)
# System: moderate-to-severe chronic spontaneous urticaria (CSU)
# Assay: Phase 2 CSU study: itch severity score over 7 days (ISS7)
# Format: in vivo, human
# Details: for ISS7 Post-baseline Mean (SD) / ISS7 % Change difference for rilzabrutinib vs. placebo LS Mean (95% CI) / ISS7 % Change from baseline LS Mean (SE) / ISS7 Change difference for rilzabrutinib vs. placebo LS Mean (95% CI) / ISS7 Change from baseline LS Mean (SE): ITT; for Imputed non-responder n (%) (ISS7 reduction of 5 points or more) / Non-responder n (%) (ISS7 reduction of 5 points or more) / OR for rilzabrutinib vs. placebo (ISS7 reduction of 5 points or more) / RRD (%) for rilzabrutinib vs. placebo (ISS7 reduction of 5 points or more) / Responder n (%) (ISS7 reduction of 5 points or more): Omalizumab-Naïve Population, 400 mg BID
# Source text: The study comprises a 12 week, randomized, double-blind, placebo-controlled, multi-center, dose-ranging efficacy and safety phase, followed by a 40 week open label extension (OLE) phase (see FIG. 1). The study consists of three phases and an optional OLE phase. […] Clinically, CSU is characterized by the spontaneous and recurrent appearance of pruritic hives. The proposed primary endpoints were the UAS7 at Week 12 in EU and EU reference countries and the ISS7 in the US. Regardless of where a participant was from, all assessments were the same. The UAS7 score is a composite score containing both the HSS7 and the ISS7. This allowed a global assessment of the two key components of urticaria: hives and itch. […] The UAS is a validated PRO measure. […] The daily UAS scores range from 0 to 6 point/day. […] Patients were to complete the UAS using the e-diary. […] The following secondary endpoints were to be analyzed using the same approach as for the primary endpoint: • Change from baseline in UAS7 at Week 4 • Change from baseline in UAS7 at Week 12 (for US and US reference countries) • Change from baseline in ISS7 at Week 12 (except US and US reference countries) • Change from baseline in HSS7 at Week 12
compound,measurement,setting,value
"CC(C)(C=C(C#N)C(=O)N1CCC[C@@H](n2nc(-c3ccc(Oc4ccccc4)cc3F)c3c(N)ncnc32)C1)N1CCN(C2COC2)CC1 [rilzabrutinib, (R)-2-[3-[4-amino-3-(2-fluoro-4-phenoxy-phenyl)pyrazolo[3,4-d]pyrimidin-1-yl]piperidine-1-carbonyl]-4-methyl-4-[4-(oxetan-3-yl)piperazin-1-yl]pent-2-enenitrile]",ISS7 Post-baseline Mean (SD),"400 mg QPM, Week 8",10.61 (5.22)
same,ISS7 % Change difference for rilzabrutinib vs. placebo LS Mean (95% CI),"400 mg QPM, Week 9",−7.07%
same,ISS7 % Change from baseline LS Mean (SE),"400 mg QPM, Week 9",−37.93%
same,ISS7 Change difference for rilzabrutinib vs. placebo LS Mean (95% CI),"400 mg QPM, Week 9",−0.74
same,ISS7 Change from baseline LS Mean (SE),"400 mg QPM, Week 9",−6.24 (0.96)
same,ISS7 Post-baseline Mean (SD),"400 mg QPM, Week 9",10.45 (5.08)
same,ISS7 % Change difference for rilzabrutinib vs. placebo LS Mean (95% CI),"400 mg QPM, Week 10",−1.26%
same,ISS7 % Change from baseline LS Mean (SE),"400 mg QPM, Week 10",−39.07 (6.29) %
same,ISS7 Change difference for rilzabrutinib vs. placebo LS Mean (95% CI),"400 mg QPM, Week 10",−0.17
same,ISS7 Change from baseline LS Mean (SE),"400 mg QPM, Week 10",−6.47 (1.02)
same,ISS7 Post-baseline Mean (SD),"400 mg QPM, Week 10",10.36 (5.24)
same,ISS7 % Change difference for rilzabrutinib vs. placebo LS Mean (95% CI),"400 mg QPM, Week 11",−3.30%
same,ISS7 % Change from baseline LS Mean (SE),"400 mg QPM, Week 11",−36.92 (6.23) %
same,ISS7 Change difference for rilzabrutinib vs. placebo LS Mean (95% CI),"400 mg QPM, Week 11",−0.04
same,ISS7 Change from baseline LS Mean (SE),"400 mg QPM, Week 11",−5.90 (0.99)
same,ISS7 Post-baseline Mean (SD),"400 mg QPM, Week 11",10.97 (5.48)
same,ISS7 % Change difference for rilzabrutinib vs. placebo LS Mean (95% CI),"400 mg QPM, Week 12",1.35%
same,ISS7 % Change from baseline LS Mean (SE),"400 mg QPM, Week 12",−35.23 (6.55) %
same,ISS7 Change difference for rilzabrutinib vs. placebo LS Mean (95% CI),"400 mg QPM, Week 12",0.85
same,ISS7 Change from baseline LS Mean (SE),"400 mg QPM, Week 12",−5.46 (1.03)
same,ISS7 Post-baseline Mean (SD),"400 mg QPM, Week 12",11.37 (5.51)
same,ISS7 % Change difference for rilzabrutinib vs. placebo LS Mean (95% CI),"400 mg TID, Week 1",−29.95%
same,ISS7 % Change from baseline LS Mean (SE),"400 mg TID, Week 1",−40.41 (5.24) %
same,ISS7 Change difference for rilzabrutinib vs. placebo LS Mean (95% CI),"400 mg TID, Week 1",−4.65
same,ISS7 Change from baseline LS Mean (SE),"400 mg TID, Week 1",−6.65 (0.76)
same,ISS7 Post-baseline Mean (SD),"400 mg TID, Week 1",9.20 (5.60)
same,ISS7 % Change difference for rilzabrutinib vs. placebo LS Mean (95% CI),"400 mg TID, Week 2",−29.81%
same,ISS7 % Change from baseline LS Mean (SE),"400 mg TID, Week 2",−49.29 (5.21) %
same,ISS7 Change difference for rilzabrutinib vs. placebo LS Mean (95% CI),"400 mg TID, Week 2",−4.51
same,ISS7 Change from baseline LS Mean (SE),"400 mg TID, Week 2",−7.92 (0.79)
same,ISS7 Post-baseline Mean (SD),"400 mg TID, Week 2",7.97 (5.99)
same,ISS7 % Change difference for rilzabrutinib vs. placebo LS Mean (95% CI),"400 mg TID, Week 3",−27.63%
same,ISS7 % Change from baseline LS Mean (SE),"400 mg TID, Week 3",−50.07 (5.21) %
same,ISS7 Change difference for rilzabrutinib vs. placebo LS Mean (95% CI),"400 mg TID, Week 3",−3.76
same,ISS7 Change from baseline LS Mean (SE),"400 mg TID, Week 3",−7.84 (0.83)
same,ISS7 Post-baseline Mean (SD),"400 mg TID, Week 3",7.93 (5.46)
same,ISS7 % Change difference for rilzabrutinib vs. placebo LS Mean (95% CI),"400 mg TID, Week 4",−23.20%
same,ISS7 % Change from baseline LS Mean (SE),"400 mg TID, Week 4",−48.97 (5.57) %
same,ISS7 Change difference for rilzabrutinib vs. placebo LS Mean (95% CI),"400 mg TID, Week 4",−3.13
same,ISS7 Change from baseline LS Mean (SE),"400 mg TID, Week 4",−7.75 (0.88)
same,ISS7 Post-baseline Mean (SD),"400 mg TID, Week 4",7.54 (5.21)
same,ISS7 % Change difference for rilzabrutinib vs. placebo LS Mean (95% CI),"400 mg TID, Week 5",−21.69%
same,ISS7 % Change from baseline LS Mean (SE),"400 mg TID, Week 5",−54.96 (5.32) %
same,ISS7 Change difference for rilzabrutinib vs. placebo LS Mean (95% CI),"400 mg TID, Week 5",−3.36
same,ISS7 Change from baseline LS Mean (SE),"400 mg TID, Week 5",−8.93 (0.86)
same,ISS7 Post-baseline Mean (SD),"400 mg TID, Week 5",6.70 (5.91)
same,ISS7 % Change difference for rilzabrutinib vs. placebo LS Mean (95% CI),"400 mg TID, Week 6",−26.88%
same,ISS7 % Change from baseline LS Mean (SE),"400 mg TID, Week 6",−55.31 (5.83) %
same,ISS7 Change difference for rilzabrutinib vs. placebo LS Mean (95% CI),"400 mg TID, Week 6",−4.09
same,ISS7 Change from baseline LS Mean (SE),"400 mg TID, Week 6",−8.97 (0.93)
same,ISS7 Post-baseline Mean (SD),"400 mg TID, Week 6",6.81 (6.20)
same,ISS7 % Change difference for rilzabrutinib vs. placebo LS Mean (95% CI),"400 mg TID, Week 7",−24.96%
same,ISS7 % Change from baseline LS Mean (SE),"400 mg TID, Week 7",−53.83 (5.69) %
same,ISS7 Change difference for rilzabrutinib vs. placebo LS Mean (95% CI),"400 mg TID, Week 7",−3.71
same,ISS7 Change from baseline LS Mean (SE),"400 mg TID, Week 7",−8.71 (0.91)
same,ISS7 Post-baseline Mean (SD),"400 mg TID, Week 7",7.13 (5.42)
same,ISS7 % Change difference for rilzabrutinib vs. placebo LS Mean (95% CI),"400 mg TID, Week 8",−21.97%
same,ISS7 % Change from baseline LS Mean (SE),"400 mg TID, Week 8",−54.76 (5.95) %
same,ISS7 Change difference for rilzabrutinib vs. placebo LS Mean (95% CI),"400 mg TID, Week 8",−3.05
same,ISS7 Change from baseline LS Mean (SE),"400 mg TID, Week 8",−8.66 (0.95)
same,ISS7 Post-baseline Mean (SD),"400 mg TID, Week 8",6.72 (5.76)
same,ISS7 % Change difference for rilzabrutinib vs. placebo LS Mean (95% CI),"400 mg TID, Week 9",−24.57%
same,ISS7 % Change from baseline LS Mean (SE),"400 mg TID, Week 9",−55.43 (6.01) %
same,ISS7 Change difference for rilzabrutinib vs. placebo LS Mean (95% CI),"400 mg TID, Week 9",−3.35
same,ISS7 Change from baseline LS Mean (SE),"400 mg TID, Week 9",−8.85 (0.95)
same,ISS7 Post-baseline Mean (SD),"400 mg TID, Week 9",6.33 (5.52)
same,ISS7 % Change difference for rilzabrutinib vs. placebo LS Mean (95% CI),"400 mg TID, Week 10",−18.42%
same,ISS7 % Change from baseline LS Mean (SE),"400 mg TID, Week 10",−56.23 (6.14) %
same,ISS7 Change difference for rilzabrutinib vs. placebo LS Mean (95% CI),"400 mg TID, Week 10",−2.68
same,ISS7 Change from baseline LS Mean (SE),"400 mg TID, Week 10",−8.98 (0.99)
same,ISS7 Post-baseline Mean (SD),"400 mg TID, Week 10",6.43 (5.48)
same,ISS7 % Change difference for rilzabrutinib vs. placebo LS Mean (95% CI),"400 mg TID, Week 11",−22.13%
same,ISS7 % Change from baseline LS Mean (SE),"400 mg TID, Week 11",−55.75 (6.15) %
same,ISS7 Change difference for rilzabrutinib vs. placebo LS Mean (95% CI),"400 mg TID, Week 11",−3.15
same,ISS7 Change from baseline LS Mean (SE),"400 mg TID, Week 11",−9.02 (0.96)
same,ISS7 Post-baseline Mean (SD),"400 mg TID, Week 11",6.57 (5.76)
same,ISS7 % Change difference for rilzabrutinib vs. placebo LS Mean (95% CI),"400 mg TID, Week 12",−23.23%
same,ISS7 % Change from baseline LS Mean (SE),"400 mg TID, Week 12",−59.81 (6.28) %
same,ISS7 Change difference for rilzabrutinib vs. placebo LS Mean (95% CI),"400 mg TID, Week 12",−3.26
same,ISS7 Change from baseline LS Mean (SE),"400 mg TID, Week 12",−9.58 (1.01)
same,ISS7 Post-baseline Mean (SD),"400 mg TID, Week 12",5.59 (5.58)
same,Imputed non-responder n (%) (ISS7 reduction of 5 points or more),Week 1,0 n (%)
same,Non-responder n (%) (ISS7 reduction of 5 points or more),Week 1,18 (51.4) n (%)
same,OR for rilzabrutinib vs. placebo (ISS7 reduction of 5 points or more),Week 1,3.240
same,RRD (%) for rilzabrutinib vs. placebo (ISS7 reduction of 5 points or more),Week 1,25.3%
same,Responder n (%) (ISS7 reduction of 5 points or more),Week 1,17 (48.6) n (%)
same,Imputed non-responder n (%) (ISS7 reduction of 5 points or more),Week 2,1 (2.9) n (%)
same,Non-responder n (%) (ISS7 reduction of 5 points or more),Week 2,17 (48.6) n (%)
same,OR for rilzabrutinib vs. placebo (ISS7 reduction of 5 points or more),Week 2,2.836
same,RRD (%) for rilzabrutinib vs. placebo (ISS7 reduction of 5 points or more),Week 2,24.1%
same,Responder n (%) (ISS7 reduction of 5 points or more),Week 2,18 (51.4) n (%)
